Reference: US20240018120A1, “MAGL INHIBITORS” (H. LUNDBECK A/S, priority 2020, published 2024)

Biological target: T1, MAGL (Homo sapiens, UniProt Q99685)
T1 sequence (Q99685 1-303): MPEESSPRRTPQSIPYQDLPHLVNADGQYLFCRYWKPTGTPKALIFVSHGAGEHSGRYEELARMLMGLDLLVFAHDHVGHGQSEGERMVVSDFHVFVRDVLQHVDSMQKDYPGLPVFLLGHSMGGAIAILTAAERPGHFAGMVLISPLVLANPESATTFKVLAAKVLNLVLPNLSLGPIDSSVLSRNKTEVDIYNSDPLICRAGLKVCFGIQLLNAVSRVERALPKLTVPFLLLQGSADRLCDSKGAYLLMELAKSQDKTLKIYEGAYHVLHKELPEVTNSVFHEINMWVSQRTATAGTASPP
Experiment: In vitro competitive activity-based protein profiling, PC3 human cell membrane proteomes
Assay type: biochemical
Parameters: endogenous in cells; host or cells: PC3 human cells (membrane proteome)
Conditions: human PC3 membrane proteome
Procedure: PC3 human cell membrane proteomes (50 μL, 2.0 mg/mL total protein concentration) were preincubated with varying concentrations of inhibitors at 37° C. After 30 min, the ABPP probe JW912-Bodipy (1.0 μL, 50 μM in DMSO) was added and the mixture was incubated for 30 min at room temperature. Reactions were quenched with SDS loading buffer (15 μL-4×) and run on SDS-PAGE. Following gel imaging, serine hydrolase activity was determined by measuring fluorescent intensity of gel bands corresponding to MAGL using ImageJ 1.43u software. Intensities were converted to percent enzyme activity by normalizing to DMSO controls. IC50 values were determined by fitting percent enzyme activities to a non-linear regression, 4-parameter, sigmoidal dose response function in Prism GraphPad.

| IC50 | Compound |
| --- | --- |
| 0.0051 µM | COc1ccc(NC(=O)[C@@H]2CC23CCN(C(=O)OC(C(F)(F)F)C(F)(F)F)CC3)cn1 (single isomer, unassigned) [Example 36] |
| 0.0033 µM | Cc1ncc(NC(=O)C2CC23CCN(C(=O)OC(C(F)(F)F)C(F)(F)F)CC3)cn1 (single isomer, unassigned) [Example 103, 1,1,1,3,3,3-hexafluoropropan-2-yl (R or S)-1-((2-methylpyrimidin-5-yl)carbamoyl)-6-azaspiro[2.5]octane-6-carboxylate] |
| 0.031 µM | O=C(NCc1ccccc1)[C@@H]1CC12CCN(C(=O)OC(C(F)(F)F)C(F)(F)F)CC2 (single isomer, unassigned) [Example 151] |
| 0.29 µM | O=C(NCC1CCOCC1)[C@@H]1CC12CCN(C(=O)OC(C(F)(F)F)C(F)(F)F)CC2 (single isomer, unassigned) [Example 118] |
| 0.22 µM | NC(=O)c1ccc(NC(=O)[C@@H]2CC23CCN(C(=O)OC(C(F)(F)F)C(F)(F)F)CC3)cn1 (single isomer, unassigned) [Example 174] |
| 0.0011 µM | COc1ccc(NC(=O)[C@H]2CC23CCN(C(=O)OC(C(F)(F)F)C(F)(F)F)CC3)cn1 (single isomer, unassigned) [Example 37] |
| 0.57 µM | O=C(Nc1ccnnc1)C1CC12CCN(C(=O)OC(C(F)(F)F)C(F)(F)F)CC2 (single isomer, unassigned) [Example 109, 1,1,1,3,3,3-hexafluoropropan-2-yl (R or S)-1-(pyridazin-4-ylcarbamoyl)-6-azaspiro[2.5]octane-6-carboxylate] |
| 0.0025 µM | CC(=O)Nc1ccc(NC(=O)C2CC23CCN(C(=O)OC(C(F)(F)F)C(F)(F)F)CC3)cn1 (single isomer, unassigned) [Example 171, 1,1,1,3,3,3-hexafluoropropan-2-yl (R or S)-1-((6-acetamidopyridin-3-yl)carbamoyl)-6-azaspiro[2.5]octane-6-carboxylate] |
| 0.13 µM | CC(=O)Nc1ccc(NC(=O)C2CC23CCN(C(=O)OC(C(F)(F)F)C(F)(F)F)CC3)cn1 (single isomer, unassigned) [Example 172, 1,1,1,3,3,3-hexafluoropropan-2-yl (R or S)-1-((6-acetamidopyridin-3-yl)carbamoyl)-6-azaspiro[2.5]octane-6-carboxylate] |
| 0.13 µM | O=C(Nc1ccccc1)[C@@H]1CC12CCN(C(=O)OC(C(F)(F)F)C(F)(F)F)CC2 (single isomer, unassigned) [Example 142] |
| 1 µM | O=C(Nc1cnoc1)[C@@H]1CC12CCN(C(=O)OC(C(F)(F)F)C(F)(F)F)CC2 (single isomer, unassigned) [Example 15] |
| 0.013 µM | O=C(Nc1cnoc1)[C@H]1CC12CCN(C(=O)OC(C(F)(F)F)C(F)(F)F)CC2 (single isomer, unassigned) [Example 14] |
| 2.6 µM | CN1CCC(NC(=O)C2CC23CCN(C(=O)OC(C(F)(F)F)C(F)(F)F)CC3)CC1 (single isomer, unassigned) [Example 114, 1,1,1,3,3,3-hexafluoropropan-2-yl (R or S)-1-((1-methylpiperidin-4-yl)carbamoyl)-6-azaspiro[2.5]octane-6-carboxylate] |
| 0.727 µM | O=C(NC1CCOCC1)[C@@H]1CC12CCN(C(=O)OC(C(F)(F)F)C(F)(F)F)CC2 [Example 9, 1,1,1,3,3,3-Hexafluoropropan-2-yl (R)-1-((tetrahydro-2H-pyran-4-yl)carbamoyl)-6-azaspiro[2.5]octane-6-carboxylate] |
| 0.15 µM | Cc1ncc(NC(=O)C2CC23CCN(C(=O)OC(C(F)(F)F)C(F)(F)F)CC3)cn1 (single isomer, unassigned) [Example 102, 1,1,1,3,3,3-hexafluoropropan-2-yl (R or S)-1-((2-methylpyrimidin-5-yl)carbamoyl)-6-azaspiro[2.5]octane-6-carboxylate] |
| 0.077 µM | O=C(NCc1cncnc1)C1CC12CCN(C(=O)OC(C(F)(F)F)C(F)(F)F)CC2 (single isomer, unassigned) [Example 153, 1,1,1,3,3,3-hexafluoropropan-2-yl (R or S)-1-((pyrimidin-5-ylmethyl)carbamoyl)-6-azaspiro[2.5]octane-6-carboxylate] |
| 0.59 µM | O=C(NC1CC2(COC2)C1)C1CC12CCN(C(=O)OC(C(F)(F)F)C(F)(F)F)CC2 (single isomer, unassigned) [Example 160, 1,1,1,3,3,3-hexafluoropropan-2-yl (R or S)-1-((2-oxaspiro[3.3]heptan-6-yl)carbamoyl)-6-azaspiro[2.5]octane-6-carboxylate] |
| 0.16 µM | O=C(Nc1ccc(C2CC2)nc1)[C@@H]1CC12CCN(C(=O)OC(C(F)(F)F)C(F)(F)F)CC2 (single isomer, unassigned) [Example 162] |
| 0.56 µM | CN1CCC(NC(=O)C2CC23CCN(C(=O)OC(C(F)(F)F)C(F)(F)F)CC3)CC1 (single isomer, unassigned) [Example 115, 1,1,1,3,3,3-hexafluoropropan-2-yl (R or S)-1-((1-methylpiperidin-4-yl)carbamoyl)-6-azaspiro[2.5]octane-6-carboxylate] |
| 0.16 µM | N#CC1CCN(C(=O)C2CC23CCN(C(=O)OC(C(F)(F)F)C(F)(F)F)CC3)CC1 (single isomer, unassigned) [Example 123, 1,1,1,3,3,3-hexafluoropropan-2-yl (R or S)-1-(4-cyanopiperidine-1-carbonyl)-6-azaspiro[2.5]octane-6-carboxylate] |
| 0.25 µM | CNC(=O)c1ccc(NC(=O)C2CC23CCN(C(=O)OC(C(F)(F)F)C(F)(F)F)CC3)cn1 (single isomer, unassigned) [Example 32, 1,1,1,3,3,3-Hexafluoropropan-2-yl (R or S)-1-((6-(methylcarbamoyl)pyridin-3-yl)carbamoyl)-6-azaspiro[2.5]octane-6-carboxylate] |
| 0.3 µM | O=C(OC(C(F)(F)F)C(F)(F)F)N1CCC2(CC1)CC2C(=O)N1CCOCC1 (single isomer, unassigned) [Example 120, 1,1,1,3,3,3-hexafluoropropan-2-yl (R or S)-1-(morpholine-4-carbonyl)-6-azaspiro[2.5]octane-6-carboxylate] |
| 0.86 µM | O=C(NCc1cncnc1)C1CC12CCN(C(=O)OC(C(F)(F)F)C(F)(F)F)CC2 (single isomer, unassigned) [Example 154, 1,1,1,3,3,3-hexafluoropropan-2-yl (R or S)-1-((pyrimidin-5-ylmethyl)carbamoyl)-6-azaspiro[2.5]octane-6-carboxylate] |
| 0.0052 µM | Cc1ccc(NC(=O)C2CC23CCN(C(=O)OC(C(F)(F)F)C(F)(F)F)CC3)cc1 (single isomer, unassigned) [Example 144, 1,1,1,3,3,3-hexafluoropropan-2-yl (R or S)-1-(p-tolylcarbamoyl)-6-azaspiro[2.5]octane-6-carboxylate] |
| 0.0014 µM | NC(=O)c1ccc(NC(=O)[C@H]2CC23CCN(C(=O)OC(C(F)(F)F)C(F)(F)F)CC3)cn1 (single isomer, unassigned) [Example 175] |

| Compound | IC50 |
| --- | --- |
| Cn1nccc1NC(=O)C1CC12CCN(C(=O)OC(C(F)(F)F)C(F)(F)F)CC2 (single isomer, unassigned) [Example 136, 1,1,1,3,3,3-hexafluoropropan-2-yl (R or S)-1-((1-methyl-1H-pyrazol-5-yl)carbamoyl)-6-azaspiro[2.5]octane-6-carboxylate] | 0.34 µM |
| Cc1cnc(NC(=O)C2CC23CCN(C(=O)OC(C(F)(F)F)C(F)(F)F)CC3)cn1 (single isomer, unassigned) [Example 111, 1,1,1,3,3,3-hexafluoropropan-2-yl (R or S)-1-((5-methylpyrazin-2-yl)carbamoyl)-6-azaspiro[2.5]octane-6-carboxylate] | 0.074 µM |
| O=C(Nc1ccncc1)C1CC12CCN(C(=O)OC(C(F)(F)F)C(F)(F)F)CC2 (single isomer, unassigned) [Example 23, 1,1,1,3,3,3-Hexafluoropropan-2-yl (R or S)-1-(pyridin-4-ylcarbamoyl)-6-azaspiro[2.5]octane-6-carboxylate] | 0.2 µM |
| O=C(Nc1ccc(-n2cccn2)nc1)C1CC12CCN(C(=O)OC(C(F)(F)F)C(F)(F)F)CC2 (single isomer, unassigned) [Example 30, 1,1,1,3,3,3-Hexafluoropropan-2-yl (R or S)-1-((6-(1H-pyrazol-1-yl)pyridin-3-yl)carbamoyl)-6-azaspiro[2.5]octane-6-carboxylate] | 0.39 µM |
| CS(=O)(=O)Nc1ccc(NC(=O)C2CC23CCN(C(=O)OC(C(F)(F)F)C(F)(F)F)CC3)cn1 (single isomer, unassigned) [Example 180, 1,1,1,3,3,3-hexafluoropropan-2-yl (R or S)-1-((6-(methylsulfonamido)pyridin-3-yl)carbamoyl)-6-azaspiro[2.5]octane-6-carboxylate] | 0.28 µM |
| Cn1ccc(NC(=O)C2CC23CCN(C(=O)OC(C(F)(F)F)C(F)(F)F)CC3)n1 (single isomer, unassigned) [Example 126, 1,1,1,3,3,3-hexafluoropropan-2-yl (R or S)-1-((1-methyl-1H-pyrazol-3-yl)carbamoyl)-6-azaspiro[2.5]octane-6-carboxylate] | 0.23 µM |
